# Legend:
# Full-length human PIM1 = Full-length human PIM1 (Homo sapiens (Human), UniProt P11309); test: Biochemical assay for inhibitors of PIM1 kinase activity (33P trans-phosphorylation, Dowex); conditions: ATP 200 μM, Aktide 25 μM, enzyme 1 nM; read-out: PIM-1 IC50
# Method: The short forms and abbreviations used herein have the following meaning: • Ci Curie • DMSO dimethylsulfoxide • KDa kiloDalton • microCi microCurie • mg milligram • microg microgram • ng nanogram • L liter • mL milliliter • μL microliter • M molar • mM millimolar • μM micromolar • nM nanomolar Biochemical Assay for Inhibitors of PIM1 Kinase Activity
# The inhibitory activity of putative kinase inhibitors and the potency of selected compounds were determined using a trans-phosphorylation assay.
# Specific peptide or protein substrates are trans-phosphorylated by their specific ser-thr or tyr kinase in the presence of ATP traced with ^33P-γ-ATP, and in the presence of their own optimal buffer and cofactors.
# At the end of the phosphorylation reaction, more than 98% unlabeled ATP and radioactive ATP is captured by an excess of the ion exchange Dowex resin; the resin then settles down to the bottom of the reaction plate by gravity. Supernatant is subsequently withdrawn and transferred into a counting plate, then evaluated by β-counting.
# The buffer for PIM1 assay was composed of HEPES 50 mM, at pH 7.5, with 10 mM MgCl2, 1 mM DTT, 3 μM NaVO3, and 0.2 mg/mL BSA.
# Full-length human PIM1 was expressed and purified as described in Bullock A N, et al., J. Biol. Chem. 2005, 280, 41675-82.
# ATP concentration: 200 μM
# Enzyme concentration: 1 nM
# Substrate concentration Aktide (Chemical Abstract Service Registry Number 324029-01-8): 25 μM
# The test mix consisted of: • 1) 3× Enzyme mix (done in Kinase Buffer 3×), 5 μL/well • 2) 3× substrate and ATP mix (done in ddH2O), together with ^33P-γ-ATP, 5 μL/well • 3) 3× test compounds (diluted into ddH2O-3% DMSO)—5 μL/well
# An automated station (Biomek FX, Beckman) was used for serial dilutions, producing 1:3 dilutions in 100% DMSO, from line A1 to A10, for all the compounds in the column. […] In a standard experiment, the highest concentration (3×) of compounds is typically 30 μM, while the lowest one is typically 1.5 nM. Each 384-well plate generates at least one curve of the standard inhibitor staurosporine and reference wells (total enzyme activity vs. no enzymatic activity) for evaluation of Z′ and signal to background (SIB) ratio.
# 384-well plates, V bottom (test plates) are prepared with 5 μl of compound diluted as previously described (3×) and then placed onto a PlateTrak 12 robotized station (Perkin Elmer; the robot has one 384-tip pipetting head for assay start, plus one 96-tip head for dispensing resin) together with one reservoir for Enzyme mix (3×) and one for ATP mix (3×).
# Data are analyzed by an internally customized version of the “Assay Explorer” SW package, which provides sigmoidal fitting of the ten-dilution curves for IC50 determination in secondary assay/hit confirmation routines.
# [1] = tested on: MV-4-11 (biphenotypic B myelomonocytic leukemia) cells; test: In vitro cell proliferation assay (CellTiter-Glo); format: cell-based; conditions: Homo sapiens, MV4-11, MV-4-11 cells, 72 hours
# Method: In vitro Cell Proliferation Assay
# MV-4-11 (biphenotypic B myelomonocytic leukemia) cells (1250 cells/well) were seeded in white 384 well-plates in complete medium (RPMI 1640 or EMEM plus 10% Fetal bovine serum) and treated with compounds dissolved in 0.1% DMSO, 24 h after seeding. The cells were incubated at 37° C. and 5% CO2 and after 72 hours the plates were processed using CellTiter-Glo assay (Promega) following the manufacturer's instruction.
# CellTiter-Glo is a homogenous method based on the quantification of the ATP present, an indicator of metabolically active cells. ATP is quantified using a system based on luciferase and D-luciferin resulting into light generation. The luminescent signal is proportional to the number of cells present in culture.
# Briefly 25 μl/well reagent solution were added to each wells and after 5 minutes shacking microplates were red by Envision (PerkinElmer) luminometer. The luminescent signal was proportional to the number of cells present in culture.
# Inhibitory activity was evaluated comparing treated versus control data using Assay Explorer (MDL) program. IC50 was calculated using sigmoidal interpolation curve.
# Full-length human PIM2 = Full-length human PIM2 (Homo sapiens (Human), UniProt Q9P1W9); test: PIM2 kinase inhibition assay: Dowex technique; format: biochemical; conditions: ATP 4 μM, Aktide 5 μM, enzyme 1.5 nM; read-out: PIM-2 IC50
# Method: Method for PIM2 Kinase Inhibition Assay: Dowex Technique
# The buffer for PIM2 assay was composed of HEPES 50 mM, at pH 7.5, with 1 mM MgCl2, 1 mM DTT, 3 μM Na3VO4, and 0.2 mg/mL BSA.
# Full-length human PIM2 was expressed and purified as described in Fedorov O, et al., PNAS 2007 104, 51, 20523-28.
# Enzyme concentration=1.5 nM
# Aktide substrate (Chemical Abstract Service Registry Number 324029-01-8)=5 μM
# See above: same procedure as described for PIM1.
# Chain of Full-length human PIM2 (Q9P1W9 whole entry): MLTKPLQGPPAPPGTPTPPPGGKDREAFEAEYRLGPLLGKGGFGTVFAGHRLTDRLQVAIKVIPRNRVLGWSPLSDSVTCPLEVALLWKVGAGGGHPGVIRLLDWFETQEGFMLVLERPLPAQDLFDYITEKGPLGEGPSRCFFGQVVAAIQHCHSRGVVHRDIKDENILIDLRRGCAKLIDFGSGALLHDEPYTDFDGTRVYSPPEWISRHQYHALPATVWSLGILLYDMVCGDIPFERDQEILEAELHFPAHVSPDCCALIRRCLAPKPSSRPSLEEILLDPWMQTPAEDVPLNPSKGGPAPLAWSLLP
# Chain of Full-length human PIM1 (P11309 whole entry): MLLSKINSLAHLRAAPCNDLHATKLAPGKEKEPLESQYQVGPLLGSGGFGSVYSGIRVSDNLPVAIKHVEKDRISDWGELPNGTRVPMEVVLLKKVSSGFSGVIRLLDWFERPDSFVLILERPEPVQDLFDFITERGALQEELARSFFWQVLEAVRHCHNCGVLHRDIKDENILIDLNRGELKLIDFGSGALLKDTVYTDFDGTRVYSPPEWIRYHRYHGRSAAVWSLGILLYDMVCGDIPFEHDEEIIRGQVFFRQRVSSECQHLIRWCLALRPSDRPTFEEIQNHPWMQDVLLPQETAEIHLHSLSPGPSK
Compound,IC50 (Full-length human PIM1),IC50 [1],IC50 (Full-length human PIM2)
"CN1CCN(C[C@@H](NC(=O)C[C@H]2CNC(=O)c3cc(-c4cccc(Cl)c4)cn32)C2CCCCC2)CC1 [Compound 2, 2-[(4S)-7-(3-chlorophenyl)-1-oxo-1,2,3,4-tetrahydropyrrolo[1,2-a]pyrazin-4-yl]-N-[(1S)-1-cyclohexyl-2-(4-methylpiperazin-1-yl)ethyl]acetamide]",1 nM,1530 nM,–
"CN(C)C1CCN(C[C@@H](NC(=O)C[C@H]2CNC(=O)c3cc(-c4ccc(F)c(F)c4)cn32)C2CCCCC2)CC1 [Compound 6, N-{(1S)-1-cyclohexyl-2-[4-(dimethylamino)piperidin-1-yl]ethyl}-2-[(4S)-7-(3,4-difluorophenyl)-1-oxo-1,2,3,4-tetrahydropyrrolo[1,2-a]pyrazin-4-yl]acetamide]",8 nM,3150 nM,171 nM
"CN(C)C1CCN(C[C@@H](NC(=O)C[C@H]2CNC(=O)c3cc(-c4ccnc(F)c4)cn32)C2CCCCC2)CC1 [Compound 10, N-{(1S)-1-cyclohexyl-2-[4-(dimethylamino)piperidin-1-yl]ethyl}-2-[(4S)-7-(2-fluoropyridin-4-yl)-1-oxo-1,2,3,4-tetrahydropyrrolo[1,2-a]pyrazin-4-yl]acetamide]",6 nM,6750 nM,57 nM
"CN(C)C1CCN(C[C@@H](NC(=O)C[C@H]2CNC(=O)c3cc(-c4cccc(Cl)c4)cn32)C2CCCCC2)CC1 [Compound 23, 2-[(4S)-7-(3-chlorophenyl)-1-oxo-1,2,3,4-tetrahydropyrrolo[1,2-a]pyrazin-4-yl]-N-{(1S)-1-cyclohexyl-2-[4-(dimethylamino)piperidin-1-yl]ethyl}acetamide]",1 nM,1130 nM,36 nM
"CN1CCN(C[C@@H](NC(=O)C[C@H]2CNC(=O)c3cc(-c4cc(Cl)ccc4F)cn32)C2CCCCC2)CC1 [Compound 26, 2-[(4S)-7-(5-chloro-2-fluorophenyl)-1-oxo-1,2,3,4-tetrahydropyrrolo[1,2-a]pyrazin-4-yl]-N-[(1S)-1-cyclohexyl-2-(4-methylpiperazin-1-yl)ethyl]acetamide]",2 nM,1160 nM,132 nM

# Source: patent publication US9145418B2, “Substituted 3,4-dihydropyrrolo[1,2-a]pyrazin-1(2H)-ones as protein kinase inhibitors” (NERVIANO MEDICAL SCIENCES S.R.L., priority 2011, dated 2015)
